Experiments:
[1] = tested on: increase in blood pressure due to cold stress; conditions: oral administration; cited from earlier work
[2] = tested on: scopolamine-induced amnesia; assay: Y-shaped maze test of spontaneous alternation behavior, scopolamine-induced amnesia; assay type: in vivo; conditions: male ddY mice, scopolamine 1 mg/kg s.c. 30 min before test
Description: Male mice (n=15) of the ddY strain (approximately 7-week old) were used, and they took food and water ad lib. Test substances used were 9.0 mg/kg weight of Ile-Pro-Pro. The test substances were administered to the mice once orally 60 minutes before the execution of a Y-shaped maze test for evaluation of spontaneous alternation behavior. Further, 30 minutes before the execution of the Y-shaped maze test, 1 mg/kg weight of scopolamine was subcutaneously administered on the backs of the mice in order to induce brain dysfunction (dysmnesia and/or cognitive impairment) in the mice. In the Y-shaped maze test, a Y-shaped maze was used as an experimental device, in which the length of each arm was 40 cm, the height of the wall was 12 cm, the width of the floor was 3 cm, and the width of the upper part was 10 cm, and three arms were connected to each other at an angle of 120 degrees. Each of the mice was placed at the tip of any one of the arms of the Y-shaped maze, and then let go to freely explore in the maze for 8 minutes. The sequence of the arms each of the mice entered was recorded. The number of entries by each of the mice for each of the arms during the measurement time was counted to be the total number of entries. […] The percentage of spontaneous alternation behavior was calculated by dividing the number of spontaneous alternation behavior by a number obtained by subtracting 2 from the total number of entries, and multiplying a resultant number by 100. […] The measured values were expressed in the form of mean±standard error for each group. A significant difference between the control group and the scopolamine control group was calculated using Student's t-test.
Male mice (n=15) of the ddY strain (approximately 7-week old) were used, and they took food and water ad lib. […] The arms each of the mice entered were sequentially recorded. The number of entries by each of the mice for each of the arms during the measurement time was counted to be the total number of entries. […]

blood pressure = conditions: oral administration; cited from earlier work
[3] = biological target: angiotensin-converting enzyme (ACE) (Homo sapiens, UniProt P12821); conditions: cited from earlier work
[4] = 10 mg/kg weight once orally 60 min before test

angiotensin-converting enzyme (ACE), sequence (P12821 30-1306, species assumed): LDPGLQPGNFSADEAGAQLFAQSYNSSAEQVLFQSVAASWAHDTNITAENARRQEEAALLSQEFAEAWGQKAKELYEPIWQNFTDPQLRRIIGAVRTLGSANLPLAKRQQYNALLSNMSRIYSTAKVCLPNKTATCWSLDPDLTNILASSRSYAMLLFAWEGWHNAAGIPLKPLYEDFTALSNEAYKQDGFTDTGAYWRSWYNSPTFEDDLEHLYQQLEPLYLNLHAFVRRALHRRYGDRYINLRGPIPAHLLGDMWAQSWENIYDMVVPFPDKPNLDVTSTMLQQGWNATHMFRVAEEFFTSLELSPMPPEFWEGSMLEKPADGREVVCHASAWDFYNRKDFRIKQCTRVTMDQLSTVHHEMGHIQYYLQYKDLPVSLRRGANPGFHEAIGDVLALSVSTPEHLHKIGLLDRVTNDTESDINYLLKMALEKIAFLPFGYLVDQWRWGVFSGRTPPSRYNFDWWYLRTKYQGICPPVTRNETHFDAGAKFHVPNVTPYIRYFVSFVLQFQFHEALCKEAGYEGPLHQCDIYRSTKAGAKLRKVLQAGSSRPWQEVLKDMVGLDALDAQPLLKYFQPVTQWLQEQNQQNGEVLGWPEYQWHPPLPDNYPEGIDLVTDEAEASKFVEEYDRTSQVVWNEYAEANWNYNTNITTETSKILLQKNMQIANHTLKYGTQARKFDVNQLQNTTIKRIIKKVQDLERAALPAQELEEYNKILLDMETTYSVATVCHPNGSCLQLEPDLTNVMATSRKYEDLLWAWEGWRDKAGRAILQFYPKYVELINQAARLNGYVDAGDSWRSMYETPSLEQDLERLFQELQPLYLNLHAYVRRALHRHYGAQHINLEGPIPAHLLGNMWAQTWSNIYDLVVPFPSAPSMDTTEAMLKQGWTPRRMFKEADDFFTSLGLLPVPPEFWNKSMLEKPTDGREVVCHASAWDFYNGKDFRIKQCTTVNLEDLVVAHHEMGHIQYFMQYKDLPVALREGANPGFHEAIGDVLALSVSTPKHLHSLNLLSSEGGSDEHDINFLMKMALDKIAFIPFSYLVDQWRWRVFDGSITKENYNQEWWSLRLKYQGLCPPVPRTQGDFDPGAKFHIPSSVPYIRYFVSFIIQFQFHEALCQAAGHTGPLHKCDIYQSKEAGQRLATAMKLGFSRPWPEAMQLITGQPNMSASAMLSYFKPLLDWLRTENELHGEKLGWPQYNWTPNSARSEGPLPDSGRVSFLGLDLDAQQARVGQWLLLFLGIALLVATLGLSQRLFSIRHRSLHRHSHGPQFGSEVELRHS

| Substance | inhibitory activities on increase in blood pressure due to cold stress or on decrease in markers of immune function [1] | prophylactic activity against amnesia (percentage of spontaneous alternation behavior) ([2]; 9.0 mg/kg weight once orally 60 min before test) | hypotensive activity (blood pressure) | ACE inhibitory activity [3] | prophylactic activity against amnesia (percentage of spontaneous alternation behavior) [2, 4] |
| --- | --- | --- | --- | --- | --- |
| Ile-Pro-Pro | exhibit inhibitory activities on increase in blood pressure due to cold stress | had a prophylactic activity against amnesia | hypotensive lowering activity | has an ACE inhibitory activity |  |
| Leu-Pro-Pro |  |  |  |  | had a prophylactic activity against amnesia |
| Ser-Pro-Pro |  |  |  |  | had a prophylactic activity against amnesia |
| Val-Pro-Pro [Val-Pro-Pro (VPP), reference compound] | exhibit inhibitory activities on increase in blood pressure due to cold stress |  |  |  |  |
